This passage reports IC50, Ki and Activity results from ChEMBL document CHEMBL3397036, “Novel tail and head group prostamide probes” (Bioorg Med Chem Lett, 2015).

Experiment [1] concerns the target T1, Fatty-acid amide hydrolase 1 (Homo sapiens, UniProt O00519).
T1 sequence (O00519 whole entry): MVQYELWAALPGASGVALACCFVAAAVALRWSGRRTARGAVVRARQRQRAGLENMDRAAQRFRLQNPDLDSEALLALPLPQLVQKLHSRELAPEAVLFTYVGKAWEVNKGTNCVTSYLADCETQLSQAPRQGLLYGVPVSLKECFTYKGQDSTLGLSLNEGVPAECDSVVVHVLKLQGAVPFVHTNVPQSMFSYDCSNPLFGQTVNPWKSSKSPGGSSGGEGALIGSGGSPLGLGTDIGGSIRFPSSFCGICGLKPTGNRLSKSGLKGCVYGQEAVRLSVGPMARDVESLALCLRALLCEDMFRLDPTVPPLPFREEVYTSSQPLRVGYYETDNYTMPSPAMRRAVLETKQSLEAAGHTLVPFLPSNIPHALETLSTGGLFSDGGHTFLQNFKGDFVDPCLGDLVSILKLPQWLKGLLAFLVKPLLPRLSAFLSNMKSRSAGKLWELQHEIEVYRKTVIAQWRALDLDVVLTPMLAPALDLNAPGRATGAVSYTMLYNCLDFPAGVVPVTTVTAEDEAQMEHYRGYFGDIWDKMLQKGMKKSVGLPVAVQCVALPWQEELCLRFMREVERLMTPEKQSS
The experiment in a line: Inhibition of human FAAH.

The target in experiment [2] is T2, Fatty-acid amide hydrolase 1 (Rattus norvegicus, UniProt P97612).
T2 sequence (P97612 whole entry): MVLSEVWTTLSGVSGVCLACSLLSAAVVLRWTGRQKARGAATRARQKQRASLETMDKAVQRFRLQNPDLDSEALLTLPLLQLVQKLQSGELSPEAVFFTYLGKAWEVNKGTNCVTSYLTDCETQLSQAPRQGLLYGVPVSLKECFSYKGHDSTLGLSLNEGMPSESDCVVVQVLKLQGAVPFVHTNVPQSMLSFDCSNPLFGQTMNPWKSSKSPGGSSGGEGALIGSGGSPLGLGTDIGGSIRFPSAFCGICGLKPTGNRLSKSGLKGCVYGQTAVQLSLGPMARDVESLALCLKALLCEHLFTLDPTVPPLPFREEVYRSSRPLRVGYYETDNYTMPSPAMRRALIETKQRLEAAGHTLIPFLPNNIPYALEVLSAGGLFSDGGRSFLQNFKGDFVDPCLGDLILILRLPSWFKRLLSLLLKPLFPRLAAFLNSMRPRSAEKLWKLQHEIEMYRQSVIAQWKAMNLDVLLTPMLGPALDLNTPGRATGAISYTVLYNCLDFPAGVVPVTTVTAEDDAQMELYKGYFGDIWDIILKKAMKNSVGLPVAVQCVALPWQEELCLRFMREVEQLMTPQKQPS
Description: Inhibition of rat FAAH.

Another experiment has as its target T3, Monoglyceride lipase (Homo sapiens, UniProt Q99685).
T3 sequence (Q99685 whole entry): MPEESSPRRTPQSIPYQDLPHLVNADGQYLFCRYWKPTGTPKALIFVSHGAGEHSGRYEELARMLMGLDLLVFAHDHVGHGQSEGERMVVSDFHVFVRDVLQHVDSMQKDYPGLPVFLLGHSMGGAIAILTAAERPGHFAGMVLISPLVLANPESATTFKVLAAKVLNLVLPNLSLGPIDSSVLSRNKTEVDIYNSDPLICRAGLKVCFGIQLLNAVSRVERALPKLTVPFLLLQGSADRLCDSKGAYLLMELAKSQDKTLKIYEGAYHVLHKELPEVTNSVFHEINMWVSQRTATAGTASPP
The experiment in a line: Inhibition of human MGL.

Experiment [3] concerns the target T4, N-acylethanolamine-hydrolyzing acid amidase (Homo sapiens, UniProt Q02083).
T4 sequence (Q02083 whole entry): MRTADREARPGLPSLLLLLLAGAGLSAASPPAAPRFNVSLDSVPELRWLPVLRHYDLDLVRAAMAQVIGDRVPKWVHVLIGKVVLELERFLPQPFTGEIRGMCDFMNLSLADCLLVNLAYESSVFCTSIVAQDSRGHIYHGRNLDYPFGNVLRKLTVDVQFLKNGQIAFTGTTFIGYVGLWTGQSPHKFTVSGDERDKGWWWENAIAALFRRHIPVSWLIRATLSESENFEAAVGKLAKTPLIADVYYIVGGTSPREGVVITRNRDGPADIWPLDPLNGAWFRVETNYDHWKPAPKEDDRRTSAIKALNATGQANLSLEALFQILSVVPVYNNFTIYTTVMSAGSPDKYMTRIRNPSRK
The experiment in a line: Inhibition of human NAAA.

Experiment [4] addresses T5, Cannabinoid receptor 1 (Rattus norvegicus, UniProt P20272). Description: Displacement of [3H]CP-55,940 from CB1 receptor in rat brain homogenates in presence of phenylmethanesulfonyl fluoride. Type of experiment: tissue-based.
Experiment [5] has as its target T5, Cannabinoid receptor 1. Description: Displacement of [3H]CP-55,940 from CB1 receptor in rat brain homogenates in absence of phenylmethanesulfonyl fluoride. Format: tissue-based.
The target in experiment [6] is Cannabinoid receptor 2 (Mus musculus, UniProt P47936). Description: Displacement of [3H]CP-55,940 from mouse CB2 receptor expressed in HEK293 cells. Format: cell-based.
Sequence of Cannabinoid receptor 2 (Mus musculus, UniProt P47936) (P47936 whole entry): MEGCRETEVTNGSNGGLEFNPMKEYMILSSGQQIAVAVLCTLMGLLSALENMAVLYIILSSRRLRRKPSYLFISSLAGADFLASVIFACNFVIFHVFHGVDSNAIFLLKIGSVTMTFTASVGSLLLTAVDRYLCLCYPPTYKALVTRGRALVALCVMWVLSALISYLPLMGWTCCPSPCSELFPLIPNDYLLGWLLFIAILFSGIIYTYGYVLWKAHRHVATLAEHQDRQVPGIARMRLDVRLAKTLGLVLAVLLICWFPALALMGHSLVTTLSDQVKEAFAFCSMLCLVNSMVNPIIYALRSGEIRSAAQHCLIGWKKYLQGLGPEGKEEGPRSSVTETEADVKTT
For experiment [7], the target named is Cannabinoid receptor 2 (Homo sapiens, UniProt P34972). The experiment in a line: Displacement of [3H]CP-55,940 from human CB2 receptor expressed in HEK293 cells. Type of experiment: cell-based.
Sequence of Cannabinoid receptor 2 (Homo sapiens, UniProt P34972) (P34972 whole entry): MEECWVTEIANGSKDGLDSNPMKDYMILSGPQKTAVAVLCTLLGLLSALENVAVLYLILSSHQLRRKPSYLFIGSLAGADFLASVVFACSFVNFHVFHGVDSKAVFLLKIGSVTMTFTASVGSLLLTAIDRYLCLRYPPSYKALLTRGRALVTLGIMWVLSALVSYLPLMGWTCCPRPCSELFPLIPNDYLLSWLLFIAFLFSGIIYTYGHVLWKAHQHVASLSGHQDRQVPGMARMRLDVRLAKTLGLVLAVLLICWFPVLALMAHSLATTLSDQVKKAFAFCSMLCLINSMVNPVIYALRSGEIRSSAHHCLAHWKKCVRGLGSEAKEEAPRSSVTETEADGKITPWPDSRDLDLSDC
For experiment [8], the target named is T6, Prostaglandin E2 receptor EP1 subtype (Homo sapiens) (UniProt P34995).
T6 sequence (whole entry): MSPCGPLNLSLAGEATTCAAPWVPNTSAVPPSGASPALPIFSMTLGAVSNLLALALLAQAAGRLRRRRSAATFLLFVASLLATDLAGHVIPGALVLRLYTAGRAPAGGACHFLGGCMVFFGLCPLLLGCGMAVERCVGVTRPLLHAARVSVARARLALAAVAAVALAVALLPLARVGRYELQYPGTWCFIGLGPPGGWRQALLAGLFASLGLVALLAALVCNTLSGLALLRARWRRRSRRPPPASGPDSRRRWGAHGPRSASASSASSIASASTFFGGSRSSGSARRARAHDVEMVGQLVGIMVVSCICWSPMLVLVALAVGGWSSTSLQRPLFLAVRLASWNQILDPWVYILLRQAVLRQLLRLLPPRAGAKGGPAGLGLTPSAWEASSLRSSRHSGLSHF
Description: Activity at recombinant EP1 receptor (unknown origin) expressed in CHO cells co-expressing Gq protein at 100 nM by electrical cell substrate impedance sensing system. Format: cell-based.

For experiment [9], the target named is T7, Prostaglandin E2 receptor EP3 subtype (Homo sapiens) (UniProt P43115).
T7 sequence (whole entry): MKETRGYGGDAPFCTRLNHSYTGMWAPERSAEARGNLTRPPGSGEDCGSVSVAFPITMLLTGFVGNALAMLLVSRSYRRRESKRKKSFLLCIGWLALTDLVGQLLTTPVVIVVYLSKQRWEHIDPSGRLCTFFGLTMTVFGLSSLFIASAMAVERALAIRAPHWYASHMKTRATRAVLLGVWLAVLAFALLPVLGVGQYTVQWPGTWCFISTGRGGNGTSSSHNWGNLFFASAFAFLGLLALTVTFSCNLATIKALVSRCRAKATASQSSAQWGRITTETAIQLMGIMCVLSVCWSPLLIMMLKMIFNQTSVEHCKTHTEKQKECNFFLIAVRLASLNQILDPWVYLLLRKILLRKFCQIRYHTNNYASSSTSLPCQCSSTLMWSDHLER
Description: Activity at recombinant EP3 receptor (unknown origin) expressed in CHO cells co-expressing Gi protein at 100 nM by electrical cell substrate impedance sensing system. Format: cell-based.

The target in experiment [10] is Prostaglandin E2 receptor EP4 subtype (Homo sapiens) (UniProt P35408). The experiment in a line: Activity at recombinant EP4 receptor (unknown origin) expressed in CHO cells co-expressing Gs protein at 100 nM by electrical cell substrate impedance sensing system. Format: cell-based.
Sequence of Prostaglandin E2 receptor EP4 subtype (Homo sapiens) (P35408 whole entry): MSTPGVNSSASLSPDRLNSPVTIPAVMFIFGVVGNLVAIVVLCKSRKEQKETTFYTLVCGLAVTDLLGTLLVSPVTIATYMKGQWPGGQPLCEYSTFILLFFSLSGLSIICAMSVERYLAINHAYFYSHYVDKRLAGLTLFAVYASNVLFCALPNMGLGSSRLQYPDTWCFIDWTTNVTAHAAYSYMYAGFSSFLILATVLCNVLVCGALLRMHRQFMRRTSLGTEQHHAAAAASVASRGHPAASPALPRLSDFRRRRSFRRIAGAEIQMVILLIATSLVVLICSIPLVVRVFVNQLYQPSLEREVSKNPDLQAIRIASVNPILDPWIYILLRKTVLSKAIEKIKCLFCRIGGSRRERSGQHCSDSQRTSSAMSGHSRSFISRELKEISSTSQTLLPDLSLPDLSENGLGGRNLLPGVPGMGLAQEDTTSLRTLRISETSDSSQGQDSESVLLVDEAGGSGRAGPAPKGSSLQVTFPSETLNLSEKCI

Activity calls are given as the source filed them. No cut-off for these calls is given here.

T5 sequence (P20272 whole entry): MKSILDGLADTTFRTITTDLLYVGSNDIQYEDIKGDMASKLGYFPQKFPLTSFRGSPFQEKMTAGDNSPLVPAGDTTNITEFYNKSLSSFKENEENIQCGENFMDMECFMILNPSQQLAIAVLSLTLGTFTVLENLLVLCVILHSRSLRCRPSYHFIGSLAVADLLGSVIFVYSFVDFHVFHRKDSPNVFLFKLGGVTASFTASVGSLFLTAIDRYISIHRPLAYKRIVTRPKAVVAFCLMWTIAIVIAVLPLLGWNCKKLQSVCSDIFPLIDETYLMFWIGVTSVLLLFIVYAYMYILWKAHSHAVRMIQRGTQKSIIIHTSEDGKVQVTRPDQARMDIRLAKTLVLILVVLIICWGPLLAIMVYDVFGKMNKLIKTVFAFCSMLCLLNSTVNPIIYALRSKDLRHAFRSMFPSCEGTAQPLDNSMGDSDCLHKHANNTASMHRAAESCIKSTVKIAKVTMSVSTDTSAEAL

As for `O=C(CCC/C=C\C[C@H]1C(=O)C[C@@H](O)[C@@H]1/C=C/[C@@H](O)CCc1ccccc1)NCCO`, the IC50 was over 100 µM in [1], over 100 µM in [2], 100 µM at Monoglyceride lipase and over 100 µM in [3]. The inhibitory constant (Ki) at Cannabinoid receptor 1 [4], at Cannabinoid receptor 1 [5], at Cannabinoid receptor 2 [6] and at Cannabinoid receptor 2 [7] was over 1 µM each time. Also, the result in [8], in [9] and in experiment [10] was inactive.
Consider `O=C(CCC/C=C\C[C@H]1C(=O)C[C@@H](O)[C@@H]1/C=C/[C@@H](O)CCc1ccccc1)NCCCO`, for which the IC50 (in [1]; in experiment [2]; on Monoglyceride lipase; in [3]) was over 100 µM throughout. Further, the Ki at Cannabinoid receptor 1 [4], on Cannabinoid receptor 1 [5], on Cannabinoid receptor 2 [6] and at Cannabinoid receptor 2 [7] was over 1 µM throughout.
With `O=C(CCC/C=C\C[C@H]1C(=O)C[C@@H](O)[C@@H]1/C=C/[C@@H](O)CCc1ccc(I)cc1)NCCO`, the IC50 (in experiment [1]; in [2]; at Monoglyceride lipase; in [3]) was over 100 µM each time. Besides, the Ki was 0.62 µM on Cannabinoid receptor 1 [4], 0.83 µM on Cannabinoid receptor 1 [5], over 1 µM on Cannabinoid receptor 2 [6] and over 1 µM on Cannabinoid receptor 2 [7].
With `C[C@H](CO)NC(=O)CCC/C=C\C[C@H]1C(=O)C[C@@H](O)[C@@H]1/C=C/[C@@H](O)CCc1ccccc1`, the IC50 (in experiment [1]; in [2]; against Monoglyceride lipase; in [3]) was over 100 µM in each case. In addition, the Ki at Cannabinoid receptor 1 [4] was 0.73 µM; at Cannabinoid receptor 1 [5], 0.77 µM; on Cannabinoid receptor 2 [6], over 1 µM; on Cannabinoid receptor 2 [7], over 1 µM.
Consider `CCCCC[C@H](O)/C=C/[C@H]1[C@H](O)CC(=O)[C@@H]1C/C=C\CCCC(=O)O`, for which the outcome in [8], in experiment [9] and in [10] was Active.
For `CCCCC[C@H](O)/C=C/[C@H]1[C@H](O)CC(=O)[C@@H]1C/C=C\CCCC(=O)NCCO`, the outcome in [8], in experiment [9] and in experiment [10] was inactive.
Regarding `C[C@@H](CO)NC(=O)CCC/C=C\C[C@H]1C(=O)C[C@@H](O)[C@@H]1/C=C/[C@@H](O)CCc1ccccc1`, the 50% inhibitory concentration (IC50) (in experiment [1]; in experiment [2]; on Monoglyceride lipase; in [3]) was over 100 µM each time. For the same compound, the Ki at Cannabinoid receptor 1 [4] is 0.95 µM; on Cannabinoid receptor 1 [5], over 1 µM; on Cannabinoid receptor 2 [6], over 1 µM; on Cannabinoid receptor 2 [7], over 1 µM.
Consider `O=C(CCC/C=C\C[C@H]1C(=O)C[C@@H](O)[C@@H]1/C=C/[C@H](O)CCc1ccccc1)NCCO`, for which the concentration for half-maximal inhibition (IC50) (in [1]; in experiment [2]; on Monoglyceride lipase; in experiment [3]) was over 100 µM in each case. The Ki at Cannabinoid receptor 1 [4] is 0.74 µM; at Cannabinoid receptor 1 [5], 0.74 µM; at Cannabinoid receptor 2 [6], over 1 µM; at Cannabinoid receptor 2 [7], over 1 µM.
